These are literature values, as cited in PMC13091788 (NPJ Aging, 2026).

The structures appear in SMILES notation.

Details of the data set: method as in PMID 24593257. The settings on record: cited from earlier work.

For the compound `COc1ccc2cc3n(cc-2c1=O)CCc1cc2c(cc1-3)OCO2` [Q-BRB, quinoid-type berberrubine], the lipophilicity result is listed as “very high”.
